Experimental data from ChEMBL document CHEMBL3769339, “Synthesis of indole-derived allocolchicine congeners exhibiting pronounced anti-proliferative and apoptosis-inducing properties” (Medchemcomm, 2015).
Activity calls are given as the source filed them. The rule behind the calls is not given here.

Experiments:
[1] = Inhibition of sheep tubulin polymerization by fluorescence based assay; set-up: species or system Ovis aries
[2] = tested on: BJAB; test: Induction of apoptosis in human BJAB cells assessed as DNA fragmentation after 72 hrs by flow cytometry; assay type: functional, cell-based
[3] = tested on: BJAB; test: Antiproliferative activity against human BJAB cells after 24 hrs by CASY cell counting method; assay type: functional, cell-based
[4] = tested on: BJAB; test: Cytotoxicity against human BJAB cells assessed as necrosis at AC50 after 72 hrs by LDH release assay; assay type: cell-based
[5] = tested on: BJAB; test: Antiproliferative activity against human BJAB cells at AC50 after 24 hrs by CASY cell counting method; assay type: functional
[6] = tested on: BJAB; test: Antiproliferative activity against human BJAB cells assessed as cell count at 0.1 uM after 24 hrs by CASY cell counting method (reference value: 2.02 10^5/ml); assay type: functional
[7] = tested on: BJAB; test: Antiproliferative activity against human BJAB cells assessed as cell count at 0.5 uM after 24 hrs by CASY cell counting method (reference value: 2.02 10^5/ml); assay type: functional
[8] = tested on: BJAB; test: Antiproliferative activity against human BJAB cells assessed as cell count at 30 uM after 24 hrs by CASY cell counting method (reference value: 2.02 10^5/ml); assay type: functional
[9] = tested on: BJAB; test: Antiproliferative activity against human BJAB cells assessed as cell count at 0.05 uM after 24 hrs by CASY cell counting method (reference value: 2.02 10^5/ml); assay type: functional
[10] = organism: Ovis aries; test: Inhibition of sheep tubulin polymerization at 0.75 to 7.5 uM by fluorescence based assay
[11] = tested on: BJAB; test: Antiproliferative activity against human BJAB cells assessed as cell count at 50 uM after 24 hrs by CASY cell counting method (reference value: 2.02 10^5/ml); assay type: functional
[12] = tested on: BJAB; test: Cytotoxicity against human BJAB cells assessed as necrosis at 5 uM after 1 hr by LDH release assay; assay type: cell-based
[13] = tested on: BJAB; test: Antiproliferative activity against human BJAB cells assessed as cell count at 5 uM after 24 hrs by CASY cell counting method (reference value: 2.02 10^5/ml); assay type: functional
[14] = tested on: BJAB; test: Antiproliferative activity against human BJAB cells assessed as cell count at 0.005 uM after 24 hrs by CASY cell counting method (reference value: 2.02 10^5/ml); assay type: functional
[15] = tested on: BJAB; test: Antiproliferative activity against human BJAB cells assessed as cell count at 0.01 uM after 24 hrs by CASY cell counting method (reference value: 2.02 10^5/ml); assay type: functional
[16] = tested on: BJAB; test: Antiproliferative activity against human BJAB cells assessed as cell count at 10 uM after 24 hrs by CASY cell counting method (reference value: 2.02 10^5/ml); assay type: functional
[17] = tested on: BJAB; test: Antiproliferative activity against human BJAB cells assessed as cell count at 100 uM after 24 hrs by CASY cell counting method (reference value: 2.02 10^5/ml); assay type: functional
[18] = tested on: BJAB; test: Antiproliferative activity against human BJAB cells assessed as cell count at 0.001 uM after 24 hrs by CASY cell counting method (reference value: 2.02 10^5/ml); assay type: functional
[19] = tested on: BJAB; test: Antiproliferative activity against human BJAB cells assessed as cell count at 1 uM after 24 hrs by CASY cell counting method (reference value: 2.02 10^5/ml); assay type: functional

COc1cc2c(c(OC)c1OC)-c1ccc(OC)c(=O)cc1[C@@H](NC(C)=O)CC2 [COLCHICINE]
IC50 [1]: 375 nM
AC50 [2]: 30 nM
Activity [2]: Dose-dependent effect
Activity [3]: Dose-dependent effect
IC50 [3]: 20 nM

COc1ccc(/C=C\c2cc(OC)c(OC)c(OC)c2)cc1O [COMBRETASTATIN A4]
IC50 [1]: 90 nM

COc1cc2c(c(OC)c1OC)-c1cc3c(ccn3C)cc1C(N)CC2 (racemic)
AC50 [2]: 5000 nM
Activity [2]: Dose-dependent effect
Activity [4]: 29%
inhibition (INH) [5]: 90%
Activity [3]: Dose-dependent effect
IC50 [3]: 500 nM

COc1cc2c(c(OC)c1OC)-c1cc3c(ccn3C)cc1C(O)CC2 (racemic)
AC50 [2]: 1 nM
Activity [2]: Dose-dependent effect
Activity [4]: 7%
inhibition (INH) [5]: 52%
Activity [3]: Dose-dependent effect
IC50 [3]: 1 nM

COc1cc2c(c(OC)c1OC)-c1cc3c(ccn3C)cc1C(=O)CC2
AC50 [2]: 50 nM
Activity [2]: Dose-dependent effect
Activity [4]: 4%
inhibition (INH) [5]: 98%
Activity [3]: Dose-dependent effect
IC50 [3]: 10 nM

COc1cc2c(c(OC)c1OC)-c1cc3ccn(C)c3cc1C(O)CC2 (racemic)
IC50 [1]: 264 nM

COc1cc2c(c(OC)c1OC)-c1cc3c(ccn3C)cc1C(NC(C)=O)CC2 (racemic)
AC50 [2]: > 100000 nM
Activity [2]: Dose-dependent effect
Activity [3]: Dose-dependent effect
IC50 [3]: > 100000 nM

COc1cc2c(c(OC)c1OC)-c1ccc3c(ccn3C)c1C(O)CC2 (racemic)
IC50 [1]: 228 nM

COc1cc2c(c(OC)c1OC)-c1cc3c(ccn3C)cc1C(OC(C)=O)CC2 (racemic)
Activity [6]: 1.17 ×10⁵ /ml
Activity [7]: 1.21 ×10⁵ /ml
IC50 [1]: 125 nM
Activity [8]: 1.12 ×10⁵ /ml
Activity [9]: 1.11 ×10⁵ /ml
inhibition [10]: Active
Activity [11]: 1.02 ×10⁵ /ml
AC50 [2]: 50 nM
Activity [2]: Dose-dependent effect
Activity [12]: Non-toxic
Activity [13]: 1.1 ×10⁵ /ml
Activity [14]: 1.87 ×10⁵ /ml
Activity [15]: 1.9 ×10⁵ /ml
Activity [4]: 0%
Activity [16]: 1.13 ×10⁵ /ml
inhibition (INH) [5]: 89%
Activity [17]: 0.97 ×10⁵ /ml
Activity [3]: Dose-dependent effect
IC50 [3]: 10 nM
Activity [18]: 2 ×10⁵ /ml
Activity [19]: 1.09 ×10⁵ /ml

COc1cc2c(c(OC)c1OC)-c1cc3c(ccn3C)cc1C(N=[N+]=[N-])CC2 (racemic)
AC50 [2]: > 100000 nM
Activity [2]: Dose-dependent effect
Activity [4]: 1%
inhibition (INH) [5]: 30%
Activity [3]: Dose-dependent effect
IC50 [3]: 50000 nM
